Assay results reported in patent US20260263449A1, “METHODS AND COMPOSITIONS FOR TREATING COCAINE ADDICTION” (The Jackson Laboratory, priority 2023, published 2026).
“Also recorded” adds a separate entry of the source. Read-outs that look alike come from different tables or passages of the source.

What was measured:
guinea pigs = conditions: cited from earlier work
mice addicted to cocaine = test: cocaine intravenous self-administration (IVSA) in cocaine-addicted mice; type: in vivo
Protocol: The efficacy of PNU-109291 treatment in mice addicted to cocaine was tested. Mice first acquired cocaine IVSA at 0.75 mg/kg cocaine per dose at a fixed-ratio-1 reinforcement schedule, then a fixed-ratio-5 schedule until they stabilized their drug-taking behavior. The animals were then injected with descending doses of PNU-109291 prior to IVSA sessions. Doses of PNU-109291 were separated by vehicle injection, and vehicle-first versus agonist-first order was randomized and counterbalanced.

5-HT2A receptor = 5-HT2A receptor (Homo sapiens, UniProt P28223); conditions: cited from earlier work
Chain of 5-HT2A receptor (P28223 whole entry): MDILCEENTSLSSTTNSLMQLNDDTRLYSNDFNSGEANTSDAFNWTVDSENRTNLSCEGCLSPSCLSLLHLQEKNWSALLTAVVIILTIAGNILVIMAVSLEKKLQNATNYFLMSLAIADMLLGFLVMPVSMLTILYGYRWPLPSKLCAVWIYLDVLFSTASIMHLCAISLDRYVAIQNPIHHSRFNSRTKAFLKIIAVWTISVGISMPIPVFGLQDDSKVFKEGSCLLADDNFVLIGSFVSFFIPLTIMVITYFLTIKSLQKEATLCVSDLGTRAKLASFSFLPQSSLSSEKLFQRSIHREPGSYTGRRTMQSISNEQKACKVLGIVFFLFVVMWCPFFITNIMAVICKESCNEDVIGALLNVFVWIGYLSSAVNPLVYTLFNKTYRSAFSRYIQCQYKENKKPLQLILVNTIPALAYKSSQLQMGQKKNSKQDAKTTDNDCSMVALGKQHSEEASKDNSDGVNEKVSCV

5-HT1B receptor = 5-HT1B receptor (Homo sapiens, UniProt P28222); conditions: cited from earlier work
Chain of 5-HT1B receptor (P28222 whole entry): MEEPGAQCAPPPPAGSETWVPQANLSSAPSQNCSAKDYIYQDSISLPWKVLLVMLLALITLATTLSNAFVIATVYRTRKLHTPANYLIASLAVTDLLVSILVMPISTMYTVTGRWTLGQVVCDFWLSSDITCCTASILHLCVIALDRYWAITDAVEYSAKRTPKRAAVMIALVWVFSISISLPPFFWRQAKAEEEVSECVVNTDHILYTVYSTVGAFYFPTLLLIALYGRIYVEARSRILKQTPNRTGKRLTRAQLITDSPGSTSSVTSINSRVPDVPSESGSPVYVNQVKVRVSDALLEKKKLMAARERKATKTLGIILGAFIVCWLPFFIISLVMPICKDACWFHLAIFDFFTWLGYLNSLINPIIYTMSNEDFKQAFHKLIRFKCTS

5-HT2C receptor = molecular target: T1, 5-HT2C receptor (Homo sapiens, UniProt P28335); conditions: cited from earlier work
T1 sequence (P28335 33-458): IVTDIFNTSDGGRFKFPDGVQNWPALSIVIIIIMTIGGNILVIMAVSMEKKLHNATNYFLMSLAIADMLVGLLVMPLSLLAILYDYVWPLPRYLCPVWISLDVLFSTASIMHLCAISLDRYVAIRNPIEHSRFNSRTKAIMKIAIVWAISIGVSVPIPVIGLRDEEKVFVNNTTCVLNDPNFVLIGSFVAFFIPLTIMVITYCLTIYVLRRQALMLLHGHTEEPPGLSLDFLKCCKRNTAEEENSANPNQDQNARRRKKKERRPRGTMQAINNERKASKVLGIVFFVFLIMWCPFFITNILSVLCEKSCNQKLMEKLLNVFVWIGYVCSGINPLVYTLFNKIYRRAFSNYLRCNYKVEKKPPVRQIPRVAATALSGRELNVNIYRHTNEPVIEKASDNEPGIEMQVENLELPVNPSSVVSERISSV

5-HT1E receptor = 5-HT1E receptor (Homo sapiens, UniProt P28566); conditions: cited from earlier work
Chain of 5-HT1E receptor (P28566 whole entry): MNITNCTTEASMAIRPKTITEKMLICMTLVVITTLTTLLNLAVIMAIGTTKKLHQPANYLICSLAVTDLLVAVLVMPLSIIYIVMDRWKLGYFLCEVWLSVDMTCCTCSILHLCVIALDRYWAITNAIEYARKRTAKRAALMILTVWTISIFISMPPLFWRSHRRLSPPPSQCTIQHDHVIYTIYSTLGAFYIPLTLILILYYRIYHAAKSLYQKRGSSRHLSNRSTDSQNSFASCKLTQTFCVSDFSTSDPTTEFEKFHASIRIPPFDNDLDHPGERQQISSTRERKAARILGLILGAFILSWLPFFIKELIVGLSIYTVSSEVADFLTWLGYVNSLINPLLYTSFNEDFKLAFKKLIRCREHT

5-HT1A receptor = molecular target: T2, 5-HT1A receptor (Homo sapiens, UniProt P08908); conditions: cited from earlier work
T2 sequence (P08908 1-422): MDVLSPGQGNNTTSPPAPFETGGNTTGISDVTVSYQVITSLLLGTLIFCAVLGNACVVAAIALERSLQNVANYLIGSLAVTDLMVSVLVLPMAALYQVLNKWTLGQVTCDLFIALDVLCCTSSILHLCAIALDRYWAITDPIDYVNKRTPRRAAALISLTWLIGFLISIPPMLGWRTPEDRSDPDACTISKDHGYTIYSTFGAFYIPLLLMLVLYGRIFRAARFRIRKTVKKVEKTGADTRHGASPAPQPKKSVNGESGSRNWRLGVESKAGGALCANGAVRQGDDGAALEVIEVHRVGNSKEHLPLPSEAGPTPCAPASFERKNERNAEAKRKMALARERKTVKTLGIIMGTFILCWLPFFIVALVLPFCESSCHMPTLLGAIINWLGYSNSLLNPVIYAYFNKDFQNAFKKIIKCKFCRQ

5-HT6 receptor = 5-HT6 receptor (Homo sapiens, UniProt P50406); conditions: cited from earlier work
Chain of 5-HT6 receptor (P50406 whole entry): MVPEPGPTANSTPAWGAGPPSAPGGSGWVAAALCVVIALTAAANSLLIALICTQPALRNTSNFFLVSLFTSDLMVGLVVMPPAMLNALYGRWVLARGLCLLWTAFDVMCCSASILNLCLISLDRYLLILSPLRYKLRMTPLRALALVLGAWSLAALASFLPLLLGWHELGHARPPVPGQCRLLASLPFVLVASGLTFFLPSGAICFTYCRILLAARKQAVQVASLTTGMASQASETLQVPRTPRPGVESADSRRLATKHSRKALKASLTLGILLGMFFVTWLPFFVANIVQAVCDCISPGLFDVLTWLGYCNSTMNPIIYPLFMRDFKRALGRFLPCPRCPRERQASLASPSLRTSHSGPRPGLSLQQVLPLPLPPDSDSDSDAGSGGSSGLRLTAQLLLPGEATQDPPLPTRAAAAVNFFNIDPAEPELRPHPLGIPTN

5-HT7 receptor = 5-HT7 receptor (Homo sapiens, UniProt P34969); conditions: cited from earlier work
Chain of 5-HT7 receptor (P34969 whole entry): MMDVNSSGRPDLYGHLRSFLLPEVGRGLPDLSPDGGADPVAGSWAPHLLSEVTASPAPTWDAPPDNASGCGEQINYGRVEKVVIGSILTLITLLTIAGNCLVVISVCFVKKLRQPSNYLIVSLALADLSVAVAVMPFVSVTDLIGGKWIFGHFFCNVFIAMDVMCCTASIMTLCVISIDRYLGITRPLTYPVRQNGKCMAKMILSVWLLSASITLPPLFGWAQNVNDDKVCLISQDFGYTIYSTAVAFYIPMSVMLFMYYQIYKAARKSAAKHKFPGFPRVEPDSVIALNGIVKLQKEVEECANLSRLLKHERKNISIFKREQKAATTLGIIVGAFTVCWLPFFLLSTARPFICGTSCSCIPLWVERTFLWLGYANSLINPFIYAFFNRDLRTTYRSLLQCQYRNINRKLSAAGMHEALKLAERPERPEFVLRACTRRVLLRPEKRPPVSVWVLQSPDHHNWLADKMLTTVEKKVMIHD

5-HT2B receptor = 5-HT2B receptor (Homo sapiens, UniProt P41595); conditions: cited from earlier work
Chain of 5-HT2B receptor (P41595 whole entry): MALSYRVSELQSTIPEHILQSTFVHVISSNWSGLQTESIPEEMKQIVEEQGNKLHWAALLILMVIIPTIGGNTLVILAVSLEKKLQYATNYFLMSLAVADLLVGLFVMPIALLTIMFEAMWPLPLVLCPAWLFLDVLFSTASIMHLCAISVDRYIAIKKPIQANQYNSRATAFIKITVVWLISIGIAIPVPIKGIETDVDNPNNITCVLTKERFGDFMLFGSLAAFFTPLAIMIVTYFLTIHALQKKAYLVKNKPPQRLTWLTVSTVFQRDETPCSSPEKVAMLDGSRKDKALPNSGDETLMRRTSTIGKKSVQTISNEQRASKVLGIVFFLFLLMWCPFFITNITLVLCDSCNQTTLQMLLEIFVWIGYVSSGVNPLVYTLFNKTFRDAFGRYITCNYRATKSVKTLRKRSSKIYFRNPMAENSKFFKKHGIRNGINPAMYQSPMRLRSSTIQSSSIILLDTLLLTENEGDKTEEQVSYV

C57BL/6NJ mice [1] = test: hypothermia bioassay for blood-brain barrier penetration in mice
Protocol: (§1) In some embodiments, the hypothermia bioassay described herein is used to determine whether a drug passes the BBB.
(§2) Thus, if mice developed hypothermia following administration of a drug, the drug was determined to cross the blood-brain barrier. […] Both drugs were formulated using 5% Kolliphor® HS-15 and 5% NMP in saline as a vehicle, as using dimethyl sulfoxide (DMSO), a standard solvent, caused hypothermia by itself.
(§3) The temperature of mice was then monitored for 120 minutes following injection.

C57BL/6NJ mice [2] = conditions: mouse, in vivo, iv, 10 mg/kg
Protocol: as §1, §2, §3

With COc1ccc(CNC(=O)/C=C/c2ccc3[nH]cc(CCN(C)C)c3c2)cc1 [GR46611] as the compound, how does the central hypothermia (guinea pigs; injected directly into the lateral ventricles of guinea pigs) read?
Its central hypothermia is “caused central hypothermia”.

For CNC(=O)c1ccc2c(c1)CCO[C@H]2CCN1CCN(c2ccc(OC)cc2)CC1 [PNU-109291, (S)-3,4-Dihydro-1-[2-[4-(4-methoxyphenyl)-1-piperazinyl]ethyl]-N-methyl-1H-2-benzopyran-6-carboxamide], which “volitional cocaine-taking (total infusions of cocaine self-administered)” value (mice addicted to cocaine; intravenous pre-treatment, 10 mg/kg body weight, before IVSA session) is on record?
The value was “significant dose effect; also recorded: reduced volitional cocaine-taking behavior”.

What about the inactive lever presses (mice addicted to cocaine; intravenous pre-treatment, range of doses) of the same compound?
The inactive lever presses was “no differences in inactive lever presses; also recorded: no effect”.

And the “cocaine self-administration, dose dependence” value (mice addicted to cocaine; range of doses, cocaine-addicted mice)?
The value was “dose-dependent decrease in cocaine self-administration”.

What about the “selectivity for 5-HTR1D over 5-HT2A receptor” value (5-HT2A receptor) of the same compound?
Its value is > 600 -fold.

And the “activity at 5-HT1B receptor” value (5-HT1B receptor)?
The value was “no activity”.

What about the “activity at 5-HT2C receptor” value (5-HT2C receptor) of the same compound?
The value was “no activity”.

What about the “activity at 5-HT1E receptor” value (5-HT1E receptor) of the same compound?
The value was “no activity”.

What about the “selectivity for 5-HTR1D over 5-HT1A receptor” value (5-HT1A receptor) of the same compound?
The value was > 600 -fold.

And the “activity at 5-HT6 receptor” value (5-HT6 receptor)?
Its value is “no activity”.

And the “activity at 5-HT7 receptor” value (5-HT7 receptor)?
Its value is “no activity”.

And the “activity at 5-HT2B receptor” value (5-HT2B receptor)?
Its value is “no activity”.

And the central hypothermia (C57BL/6NJ mice [1]; intravenous administration in mice, dose not given)?
The central hypothermia was “caused central hypothermia at levels comparable to a known BBB-permeable drug”.

And the “central hypothermia (internal temperature)” value (C57BL/6NJ mice [1]; intravenous injection, 10 mg/kg, temperature monitored for 120 minutes, vehicle 5% Kolliphor HS-15 and 5% NMP in saline)?
The value was “induced central hypothermia”.

And the “blood-brain barrier penetration, inferred from hypothermia” value (C57BL/6NJ mice [1]; intravenous, 10 mg/kg, mice)?
The value was “can bypass the blood-brain barrier; also recorded: penetrates the blood-brain barrier”.

For CNS(=O)(=O)Cc1ccc2[nH]cc(CCN(C)C)c2c1 [sumatriptan], which central hypothermia (guinea pigs; injected subcutaneously, guinea pigs) is on record?
Its central hypothermia is “does not”.

For CN(C)CCc1c[nH]c2ccc(C[C@H]3COC(=O)N3)cc12 [zolmitriptan], which “blood-brain barrier penetration, inferred from hypothermia” value (C57BL/6NJ mice [2]) is on record?
Its value is “can bypass the blood-brain barrier”.
